Measurements reported in patent publication US20090247602A1, “COSMETIC USE OF CONJUGATED COMPOUNDS OF INDOLIC AUXINS” (EXSYMOL S.A.M., priority 2008, published 2009).

Tested on: sensory neurons from explants of rachidian ganglia of rat embryos
Assay: Neurotrophic activity test: neurite outgrowth of dissociated sensory neurons
Type: cell-based
Details: 72 hours incubation; for % compared to the control: control = case 1
Text: In other respects, and forming the basis of the present invention, it has been discovered for a very small panel of structures limited to the only conjugates of aspartic and glutamic acids, an unexpected property that is a said-neurotrophic activity. This activity is also found in a class of endogenous proteins, the neurotrophins, and in particular in the “NGF” (or “nerve growth factor”), an essential growth and survival factor in the formation and the maintenance of the cutaneous nervous network (M. Bothwell, J. Invest. Dermatol. Symposium Proceedings (1997), vol. 2, pp. 27-30). This remarkable activity, without any connection with antioxidant properties of these compounds, has been evidenced through an in vitro test that consists in measuring the neurites outgrowth kinetics from rat embryos sensory neurons selected for their physiology very similar to the one of human sensory neurons.
Test: Evidence of the Neurotrophic Activity of Aminoacid Conjugates of Indolic Auxins
The experimental study has been achieved on dissociated sensory neurons from explants of rachidian ganglia of rat embryos, and prepared according to the method described by Hall A. K. and al (J. Neurosci. (1997), vol. 17, pp. 2775-2784). After dissection and dissociation, sensory neurons are at once incubated in the following culture media (in hexaplicate), according to three situations: • case 1: culture medium without NGF, and without active ingredient according to the invention (control) • case 2: culture medium without NGF, with an active ingredient according to the invention • case 3: culture medium with NGF (positive reference)
After an incubation time of 72 hours, cells are washed and fixed. They are then labelled by an anti β-tubulin antibody reacting with cellular bodies and outgrowths of neurons. After a disclosure with an Alexa Fluor 488 secondary antibody, colour picture inputs were proceeded (using “In Cell Analyzer 1000™”). These digital data are then used for measuring a relative density of neurite length compared to the non treated control (case 1).
The neurotrophic effect of tested compounds is expressed by an increase (in μm) of this density of neurite outgrowth of neurons, synonymous with a strengthended development kinetic of neuronal network and a better viability (survival) of this latter.

[1] = 0.12 mg/ml, medium without NGF (case 2)
[2] = 5.10^−6 mg/ml, medium with NGF (case 3, positive reference)

| Compound | Average density of neurite outgrowth of sensory neurons [1] [μm] | % compared to the control [1] [%] | Average density of neurite outgrowth of sensory neurons [2] [μm] | % compared to the control [2] [%] |
| --- | --- | --- | --- | --- |
| O=C(O)C[C@H](NC(=O)Cc1c[nH]c2ccccc12)C(=O)O [IAA-Asp] | 6820 | 108 |  |  |
| O=C(O)CC[C@H](NC(=O)Cc1c[nH]c2ccccc12)C(=O)O [IAA-Glu, indolyl-3-acetylglutamic acid] | 7335 | 117 |  |  |
| O=C(O)C[C@H](NC(=O)CCCc1c[nH]c2ccccc12)C(=O)O [IBA-Asp, indolyl-3-butyrylaspartic acid] | 8297 | 132 |  |  |
| O=C(O)CC[C@H](NC(=O)CCCc1c[nH]c2ccccc12)C(=O)O [IBA-Glu] | 7195 | 114 |  |  |
| O=C(O)C[C@H](NC(=O)CCc1c[nH]c2ccccc12)C(=O)O [IPA-Asp] | 6980 | 111 |  |  |
| O=C(O)CC[C@H](NC(=O)CCc1c[nH]c2ccccc12)C(=O)O [IPA-Glu] | 8247 | 131 |  |  |
| NGF: nerve growth factor, a neurotrophin; positive reference (case 3) |  |  | 11750 | 187 |
